Measured values published in patent US20060241114A1, “Derivatives of azasugars as anticancer agents” (priority 2003, published 2006).

Key:
LOX (melanoma) = experiment: In vitro growth inhibition screen (sulphorhodamine B), LOX; format: cell-based, human; settings: LOX cells, incubated for 48 hours, sulphorhodamine B dye; read-out: GI50 (concentration which inhibits the cell growth by 50%), LOX Melanoma
Summary of the method: (§1)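 GI50 (50% growth inhibition) from sulphorhodamine B staining of TCA-fixed cells, OD 490. Compounds at ten-fold dilutions from ≧100 μM down to 10 nM were added a day after plating and left 48 h; culture in RPMI 1640 with 10% FCS, 37 °C, 5% CO2.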

[1] = test system: U251 (human glioblastoma); experiment: In vitro growth inhibition screen (sulphorhodamine B), U251; format: cell-based; settings: U251 cells, incubated for 48 hours, sulphorhodamine B dye; read-out: GI50 (concentration which inhibits the cell growth by 50%), U251 Human glioblastoma astrocytoma
Summary of the method: as §1

[2] = test system: MCF7ADR (adriamycin resistant breast adenocarcinoma); experiment: In vitro growth inhibition screen (sulphorhodamine B), MCF7ADR; format: cell-based, human; settings: MCF7ADR cells, incubated for 48 hours, sulphorhodamine B dye; read-out: GI50 (concentration which inhibits the cell growth by 50%), MCF7ADR Adriamycin Resistant Breast adenocarcinoma
Summary of the method: as §1

[3] = test system: DU145 (prostate carcinoma); experiment: In vitro growth inhibition screen (sulphorhodamine B), DU145; format: cell-based, human; settings: DU145 cells, incubated for 48 hours, sulphorhodamine B dye; read-out: GI50 (concentration which inhibits the cell growth by 50%), DU145 Prostate carcinoma
Summary of the method: as §1

[4] = test system: HT29 (colorectal adenocarcinoma); experiment: In vitro growth inhibition screen (sulphorhodamine B), HT29; format: cell-based, human; settings: HT29 cells, incubated for 48 hours, sulphorhodamine B dye; read-out: GI50 (concentration which inhibits the cell growth by 50%), HT29 Colorectal adenocarcinoma
Summary of the method: as §1

[5] = test system: MCF7 (breast adenocarcinoma); experiment: In vitro growth inhibition screen (sulphorhodamine B), MCF7; format: cell-based, human; settings: MCF7 cells, incubated for 48 hours, sulphorhodamine B dye; read-out: GI50 (concentration which inhibits the cell growth by 50%), MCF7 Breast adenocarcinoma
Summary of the method: as §1

Row | Compound | GI50 (LOX (melanoma)) [µM] | GI50 [1] [µM] | GI50 [2] [µM] | GI50 [3] [µM] | GI50 [4] [µM] | GI50 [5] [µM]
1 | CCCN1C(=O)[C@H](O)[C@@H](O)[C@H](O)[C@H]1CNC(=O)CN1CCN(C)CC1 [Compound No. 68, 6-N-{2-[(N-Methyl)piperazinyl]acetyl}-N-propyl-D-gluco-δ-lactam] | 48.2 | 22 | 27.7 | 39 | 14.1 | 32.4
2 | C=CCN1C(=O)[C@H](OCc2ccccc2)[C@@H](OCc2ccccc2)[C@H](OCc2ccccc2)[C@H]1Cn1ccnn1 [Compound No. 69, N-Allyl-2,3,4-tri-O-benzyl-6-triazolyl-D-gluco-δ-lactam] | 47.4 | 37.9 | 39.4 | 51 | 31.6 | 47.8
3 | CCCN1C(=O)[C@H](O)[C@@H](O)[C@H](O)[C@H]1Cn1cncn1 [Compound No. 70, 6-Triazolyl-N-propyl-D-gluco-δ-lactam] | 232 | 516 | 894 | 252 | 302 | 340
4 | O[C@H]1[C@H](O)[C@@H](Cn2cncn2)NC[C@@H]1O [Compound No. 72, 1,5-Dideoxy-1,5-imino-6-triazolyl-glucitol] | 146 | 282 | 275 | 340 | 244 | 208
5 | CCCN1C[C@H](O)[C@@H](O)[C@H](O)[C@H]1Cn1ccnn1 [Compound No. 73, 1,5-Dideoxy-1,5-imino-N-propyl-6-triazolyl glucitol] | 247 | 506 | 291 | 267 | 470 | 320
6 | CCCN1C(=O)[C@H](OCc2ccccc2)[C@@H](OCc2ccccc2)[C@H](OCc2ccccc2)[C@H]1CNC(=O)Oc1ccccc1 [Compound No. 74, 2,3,4-Tri-O-benzyl-6-N-[phenyl carbamate]-N-propyl-D-gluco-δ-lactam] | 51.8 | 34.2 | 26.1 | 90.9 | 10.7 | 25.4
7 | CCCN1C(=O)[C@H](OCc2ccccc2)[C@@H](OCc2ccccc2)[C@H](OCc2ccccc2)[C@H]1CNC(=O)N1CCN(c2ccc(Cl)cc2)CC1 [Compound No. 75, 2,3,4-Tri-O-benzyl-6-N-{4-[4-chlorophenyl]piperazinylcarboxamido}-N-propyl-D-gluco-δ-lactam] | 16.9 | 8.8 | 11.6 | 25.7 | 18.4 | 1.6
8 | CCCN1C(=O)[C@H](OCc2ccccc2)[C@@H](OCc2ccccc2)[C@H](OCc2ccccc2)[C@H]1CNC(=O)N1CCN(c2ccc(F)cc2)CC1 [Compound No. 76, 2,3,4-Tri-O-benzyl-6-N-{4-[4-fluorophenyl]piperazinylcarboxamido}-N-propyl-D-gluco-δ-lactam] | 40.9 | 25.7 | 90.7 | 45.2 | 28.6 | 38.6
9 | CCCN1C(=O)[C@H](OCc2ccccc2)[C@@H](OCc2ccccc2)[C@H](OCc2ccccc2)[C@H]1CNC(=O)N1CCc2ccccc21 [Compound No. 77, 2,3,4-Tri-O-benzyl-6-N-{1,2-dihydro(2H)-indolylcarboxamido}-N-propyl-D-gluco-δ-lactam] | 29.5 | 28.6 | 69.1 | 49.4 | 17.5 | 56.1
10 | CCCN1C(=O)[C@H](OCc2ccccc2)[C@@H](OCc2ccccc2)[C@H](OCc2ccccc2)[C@H]1CNC(=O)N1CC2C(C1)C2NC(C)=O (stereo partly drawn) [Compound No. 79, 2,3,4-Tri-O-benzyl-6-N-{(1α,5α,6α)-6-acetylamino-azabicyclo[3.1.0]hexylcarboxamido}-N-propyl-D-gluco-δ-lactam] | 7.4 | 15.5 | 17.9 | 18.9 | 21.8 | 18.2
11 | C=CCN1C(=O)C(OCc2ccccc2)C(OCc2ccccc2)C(OCc2ccccc2)C1Cn1ncn(-c2ccc(Cl)cc2)c1=O [Compound No. 81, 2,3,4-Tri-O-benzyl-6-[4-chlorophenyl-3(2H,4H)-1,2,4-triazol-3-onyl]-N-allyl-D-gluco-δ-lactam] | 11.9 | > 250 | 77 | 70.1 | 49.5 | 102
12 | C=CCN1C(=O)C(OCc2ccccc2)C(OCc2ccccc2)C(OCc2ccccc2)C1CN1C(=O)CCCC1=O [Compound No. 82, N-Allyl-2,3,4-tri-O-benzyl-6-(2,6-diketopiperidino)-D-gluco-δ-lactam] | 8.5 | 12.5 | 17.5 | 24.8 | 23.5 | 9.9
13 | C=CCN1C(=O)[C@H](OCc2ccccc2)[C@@H](OCc2ccccc2)[C@H](OCc2ccccc2)[C@H]1CN1C(=O)c2ccccc2C1=O [Compound No. 83, N-Allyl-2,3,4-tri-O-benzyl-6-(1H-isoindole-1,3(2H)-diketo)-D-gluco-δ-lactam] | 51.4 | > 140 | 6.7 | 55.2 | 80.1 | 13.1
14 | C=CCN1C(=O)C(OCc2ccccc2)C(OCc2ccccc2)C(OCc2ccccc2)C1CN1C(=O)CCC1=O [Compound No. 84, N-Allyl-2,3,4-tri-O-benzyl-6-(2,5-diketopyrrolidino)-D-gluco-δ-lactam] | 5.9 | 9.3 | 6.4 | 18.3 | 18.7 | 5.3
15 | C=CCN1C[C@H](OCc2ccccc2)[C@@H](OCc2ccccc2)[C@H](OCc2ccccc2)[C@H]1CN1CCOCC1 [Compound No. 85, N-Allyl-2,3,4-tri-O-benzyl-1,5-dideoxy-1,5-imino-6-morpholino glucitol] | 27.3 | 25.9 | 40.3 | 43.5 | 11.3 | 7.2
16 | CCCN1C(=O)[C@H](O)[C@@H](O)[C@H](O)[C@H]1CN1C(=O)CCC1=O [Compound No. 86, 6-(2,5-Diketopyrrolidino)-N-propyl-D-gluco-δ-actam] | 37.5 | 34.4 | 52.2 | 38.5 | 44.4 | 36.2
17 | CCCN1C(=O)[C@H](O)[C@@H](O)[C@H](O)[C@H]1CN1C(=O)CCCC1=O [Compound No. 87, 6-(2,6-Diketopiperidino)-N-propyl-D-gluco-δ-lactam] | 244 | 101 | 96.9 | 131 | 108 | 74.2
18 | CCCN1C(=O)[C@H](OCc2ccccc2)[C@@H](OCc2ccccc2)[C@H](OCc2ccccc2)[C@H]1COc1nc(Cl)nc(Cl)n1 [Compound No. 90, 2,3,4-Tri-O-benzyl-6-O-(4,6-dichloro-1,3,5-triazin-1-yl)-N-propyl-D-gluco-δ-lactam] | 14.4 | 52.8 | 18.7 | 16.7 | 37.1 | 35.4
19 | N-Allyl-2,3,4-tri-O-benzyl-1,5-dideoxy-1,5-imino-D-glucitol [Compound No. 71] | 9.5 | 8.3 | 9.2 | 14.5 | 3.5 | 5.4
20 | N-Propyl-6-[4-chlorophenyl-3(2H,4H)-1,2,4-triazol-3-onyl]-D-gluco-δ-lactam [Compound No. 88] | 135 | 90.7 | 107 | 144 | 111 | 102
21 | N-{4-[Phenyl]piperazinyl carboxamido}-D-gluco-δ-lactam [Compound No. 80] | 75.9 | 59.9 | 60.1 | 90.7 | 100 | 69.4
